Where a SMILES comes first, the peptide text is derived from it.
Legend:
B*3909 = B*3909 (Homo sapiens, UniProt P01889, A182T/A93T/A95T/C349S/D138N/D201E/E176V/E187T/E204Q/K202T/Q94N/R155S/R180L/S121R/Y123S/Y140F/Y91C); test: cell-based
aminopeptidase M = details: pig, 37°C, up to 10 min
20S proteasome = test: purified 20S proteasome; details: human, 37°C, up to 24 h
[1] = molecular target: T1, aminopeptidase M from pig kidney (Sus scrofa, UniProt P15145)
T1 sequence (P15145 whole entry, looked up): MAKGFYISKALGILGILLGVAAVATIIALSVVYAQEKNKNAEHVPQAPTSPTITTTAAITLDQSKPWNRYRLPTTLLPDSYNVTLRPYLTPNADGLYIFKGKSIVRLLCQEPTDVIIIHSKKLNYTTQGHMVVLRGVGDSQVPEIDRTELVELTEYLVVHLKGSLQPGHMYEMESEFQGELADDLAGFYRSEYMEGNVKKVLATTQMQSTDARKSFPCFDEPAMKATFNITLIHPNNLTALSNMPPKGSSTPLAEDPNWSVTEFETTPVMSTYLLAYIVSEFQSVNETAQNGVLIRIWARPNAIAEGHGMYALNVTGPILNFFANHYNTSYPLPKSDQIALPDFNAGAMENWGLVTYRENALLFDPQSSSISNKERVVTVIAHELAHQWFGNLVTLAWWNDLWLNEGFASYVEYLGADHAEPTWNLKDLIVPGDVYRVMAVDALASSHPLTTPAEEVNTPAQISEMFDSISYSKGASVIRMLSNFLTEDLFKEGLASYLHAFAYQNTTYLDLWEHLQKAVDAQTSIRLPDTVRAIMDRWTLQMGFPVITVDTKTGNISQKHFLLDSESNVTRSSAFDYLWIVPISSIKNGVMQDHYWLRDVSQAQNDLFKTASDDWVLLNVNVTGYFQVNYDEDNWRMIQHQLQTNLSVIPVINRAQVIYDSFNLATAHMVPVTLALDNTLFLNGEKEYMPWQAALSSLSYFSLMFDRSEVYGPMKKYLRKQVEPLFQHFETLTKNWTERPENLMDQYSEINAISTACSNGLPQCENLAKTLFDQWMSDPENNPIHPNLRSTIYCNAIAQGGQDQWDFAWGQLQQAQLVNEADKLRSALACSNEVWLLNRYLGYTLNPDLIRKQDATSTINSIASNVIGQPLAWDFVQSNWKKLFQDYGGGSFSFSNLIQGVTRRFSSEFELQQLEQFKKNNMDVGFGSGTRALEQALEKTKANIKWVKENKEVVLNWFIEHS

For `CC(C)C[C@H](NC(=O)[C@H](Cc1ccc(O)cc1)NC(=O)[C@H](Cc1ccccc1)NC(=O)[C@H](CCC(=O)O)NC(=O)[C@@H](NC(=O)[C@H](CCC(=O)O)NC(=O)[C@H](CC(=O)O)NC(=O)[C@H](CCCNC(=N)N)NC(=O)[C@H](C)N)[C@@H](C)O)C(=O)O` (H-ARDETEFYL-OH), the EC50 (B*3909) was 5 µM.
Compound `CC(C)C[C@H](NC(=O)[C@H](C)NC(=O)[C@@H](NC(=O)[C@@H](NC(=O)CNC(=O)[C@@H]1CCCN1C(=O)[C@H](CCCNC(=N)N)NC(=O)[C@@H](N)Cc1ccc(O)cc1)[C@@H](C)O)C(C)C)C(=O)O` [YRPGTVAL] (H-YRPGTVAL-OH) has an EC50 (B*3909) of 12 µM.
For NAc-SHVAVENAL, the not cleaved (aminopeptidase M) was “signals remained strongly significant”.
In the case of NAc-SHVAVENALGLDQQFAGLDLNSSDNQSGGS, the cleaved bond (20S proteasome) is reported as “L9-G10, major”.
With THGPPVQL the “MALDI-TOF MS peak signal after digestion with aminopeptidase M” value [1] was “reduced almost to background levels”.

Source: PMC2193201 (The Journal of Experimental Medicine, 2000)
